The supplement of paper PMC8253809

Legend:
DIPGX9 [1] = diffuse intrinsic pontine glioma line; test: EC50 (inflection of fitted growth-inhibition curve) (log10 M)
Outline: (§1)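 EC50 and maximal response (yFin) were derived from the lowest-AICc fit, either three- or four-parameter log-logistic. The data were pooled CellTiter-Glo luminescence values, log2-transformed and normalised per plate to % activity between negative (solvent) and positive controls. Patient-derived pHGG/DIPG cell lines and astrocyte controls on 1% Geltrex-coated 384-well plates received a 10-point threefold dilution series (mean top concentration 35 μM) by pin tool, in triplicate, for 7 days (iAstro 3 days) at 37 °C, 5% CO2.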

HGGX39 [2] = paediatric high-grade glioma line; test: as above
Outline: as §1

SUDIPGXXI [3] = diffuse intrinsic pontine glioma line; test: as above
Outline: as §1

DIPGX37 [4] = H3.3 K27M diffuse intrinsic pontine glioma line; test: as above
Outline: as §1

iAstro [5] = astrocyte control; test: as above
Outline: as §1

HABS [6] = astrocyte control; test: as above
Outline: as §1

SUDIPGIV [7] = diffuse intrinsic pontine glioma line; test: as above
Outline: as §1

DIPGX29 [8] = H3.3 K27M diffuse intrinsic pontine glioma line; test: as above
Outline: as §1

HGGX42 [9] = H3.3 G34R paediatric high-grade glioma line; test: as above
Outline: as §1

SUDIPGXIX [10] = diffuse intrinsic pontine glioma line; test: as above
Outline: as §1

SUDIPGXVII [11] = diffuse intrinsic pontine glioma line; test: as above
Outline: as §1

HGGX2 [12] = paediatric high-grade glioma line; test: as above
Outline: as §1

DIPGX9 [13] = test: area under dose-response curve of % growth inhibition (log2 RLU vs DMSO / staurosporine), 1e-11 to 1e-4 M (% x log10 M); higher = more growth inhibition
Outline: (§2)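 Cells were exposed in triplicate for 7 days (iAstro: 3 days) at 37 °C, 5% CO2 to a 10-point series of threefold dilutions with a mean top concentration of 35 μM. These were patient-derived pHGG/DIPG lines plus astrocytes, grown on 384-well plates coated with 1% Geltrex. Readout was CellTiter-Glo luminescence, log2-transformed and set per plate to % activity between solvent and positive controls, from which area under the curve was derived by trapezoid rule on a log-logistic fit or, failing that, a smoothing spline.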

HGGX39 [14] = test: as above
Outline: as §2

SUDIPGXXI [15] = test: as above
Outline: as §2

DIPGX7 [16] = H3.3 K27M diffuse intrinsic pontine glioma line; test: as above
Outline: as §2

DIPGX37 [17] = test: as above
Outline: as §2

iAstro [18] = test: as above
Outline: as §2

HABS [19] = test: as above
Outline: as §2

SUDIPGIV [20] = test: as above
Outline: as §2

DIPGX29 [21] = test: as above
Outline: as §2

HGGX42 [22] = test: as above
Outline: as §2

SUDIPGXIX [23] = test: as above
Outline: as §2

SUDIPGXVII [24] = test: as above
Outline: as §2

HGGX2 [25] = test: as above
Outline: as §2

HGGX6 [26] = H3.3 G34R paediatric high-grade glioma line; test: as above
Outline: as §2

SUDIPGXIII [27] = diffuse intrinsic pontine glioma line; test: as above
Outline: as §2

SUDIPGVI = diffuse intrinsic pontine glioma line; test: as above
Outline: as §2

DIPGX9 [28] = test: maximal growth inhibition (yFin) relative to DMSO / staurosporine; higher = more efficacious
Outline: as §1

HGGX39 [29] = test: as above
Outline: as §1

SUDIPGXXI [30] = test: as above
Outline: as §1

DIPGX37 [31] = test: as above
Outline: as §1

iAstro [32] = test: as above
Outline: as §1

HABS [33] = test: as above
Outline: as §1

SUDIPGIV [34] = test: as above
Outline: as §1

DIPGX29 [35] = test: as above
Outline: as §1

HGGX42 [36] = test: as above
Outline: as §1

SUDIPGXIX [37] = test: as above
Outline: as §1

SUDIPGXVII [38] = test: as above
Outline: as §1

HGGX2 [39] = test: as above
Outline: as §1

DIPGX7 [40] = test: EC50 (inflection of fitted growth-inhibition curve) (log10 M)
Outline: as §1

SUDIPGXIII [41] = test: as above
Outline: as §1

DIPGX7 [42] = test: maximal growth inhibition (yFin) relative to DMSO / staurosporine; higher = more efficacious
Outline: as §1

SUDIPGXIII [43] = test: as above
Outline: as §1

HGGX6 [44] = test: EC50 (inflection of fitted growth-inhibition curve) (log10 M)
Outline: as §1

HGGX6 [45] = test: maximal growth inhibition (yFin) relative to DMSO / staurosporine; higher = more efficacious
Outline: as §1

Structure (SMILES) | EC50 (log10 M) (DIPGX9 [1]) | EC50 (log10 M) (SUDIPGXXI [3]) | EC50 (log10 M) (DIPGX29 [8]) | EC50 (log10 M) (HGGX42 [9]) | EC50 (log10 M) (SUDIPGXIX [10]) | area under dose-response curve (DIPGX9 [13]) | area under dose-response curve (HGGX39 [14]) | area under dose-response curve (SUDIPGXXI [15]) | area under dose-response curve (DIPGX7 [16]) | area under dose-response curve (DIPGX37 [17]) | area under dose-response curve (iAstro [18]) | area under dose-response curve (HABS [19]) | area under dose-response curve (SUDIPGIV [20]) | area under dose-response curve (DIPGX29 [21]) | area under dose-response curve (HGGX42 [22]) | area under dose-response curve (SUDIPGXIX [23]) | area under dose-response curve (SUDIPGXVII [24]) | area under dose-response curve (HGGX2 [25]) | area under dose-response curve (HGGX6 [26]) | area under dose-response curve (SUDIPGXIII [27]) | also measured
O=C1NC(=O)C(c2cnc3ccccn23)=C1c1cn2c3c(cc(F)cc13)CN(C(=O)N1CCCCC1)CC2 | -4.66 | -6.42 | -4.49 | -5.13 | -5.7 | 64 | 70.9 | 277 | 6.78 | 24.1 | 66.3 | 199 | 300 | 42 | 72.1 | 37 | 16.9 | 27 | 30.8 | 6.37 | EC50 (log10 M) (HGGX39 [2]): -6.42; EC50 (log10 M) (DIPGX37 [4]): -4.48; EC50 (log10 M) (iAstro [5]): -5.34; EC50 (log10 M) (HABS [6]): -7.93; EC50 (log10 M) (SUDIPGIV [7]): -8.3; EC50 (log10 M) (SUDIPGXVII [11]): -4.97; EC50 (log10 M) (HGGX2 [12]): -4.66; area under dose-response curve (SUDIPGVI): 6.26; maximal growth inhibition (DIPGX9 [28]): 97.2%; maximal growth inhibition (HGGX39 [29]): 35.2%; maximal growth inhibition (SUDIPGXXI [30]): 112%; maximal growth inhibition (DIPGX37 [31]): 52.1%; maximal growth inhibition (iAstro [32]): 45.8%; maximal growth inhibition (HABS [33]): 50.7%; maximal growth inhibition (SUDIPGIV [34]): 69.8%; maximal growth inhibition (DIPGX29 [35]): 49.3%; maximal growth inhibition (HGGX42 [36]): 60.7%; maximal growth inhibition (SUDIPGXIX [37]): 24.1%; maximal growth inhibition (SUDIPGXVII [38]): 22.3%; maximal growth inhibition (HGGX2 [39]): 40.7%
Cn1cnc([N+](=O)[O-])c1Sc1ncnc2[nH]cnc12 [AZATHIOPRINE] | -5.87 | -6.73 | -6.11 | -6.39 | -6.06 | 52.8 | 80.7 | 119 | 35.7 | 87.5 | 6.8 | 15.3 | 60 | 119 | 51 | 42.2 | 37.4 | 49.3 | 50.7 | 38.7 | EC50 (log10 M) (HGGX39 [2]): -5.65; EC50 (log10 M) (DIPGX7 [40]): -5.08; EC50 (log10 M) (DIPGX37 [4]): -5.6; EC50 (log10 M) (SUDIPGIV [7]): -5.75; EC50 (log10 M) (SUDIPGXIII [41]): -6.03; area under dose-response curve (SUDIPGVI): 29; maximal growth inhibition (DIPGX9 [28]): 27.4%; maximal growth inhibition (HGGX39 [29]): 52.1%; maximal growth inhibition (SUDIPGXXI [30]): 43.4%; maximal growth inhibition (DIPGX7 [42]): 32.3%; maximal growth inhibition (DIPGX37 [31]): 53.7%; maximal growth inhibition (SUDIPGIV [34]): 34%; maximal growth inhibition (DIPGX29 [35]): 55.9%; maximal growth inhibition (HGGX42 [36]): 23.2%; maximal growth inhibition (SUDIPGXIX [37]): 25.4%; maximal growth inhibition (SUDIPGXIII [43]): 21%
C#Cc1cccc(Nc2ncnc3cc(OCCOC)c(OCCOC)cc23)c1 [ERLOTINIB] | -5.14 | -5.65 | -4.82 | -5.09 | -5.24 | 68.4 | 34.2 | 178 | 44.7 | 51.3 | 29.7 | 86.4 | 53 | 28.1 | 50 | 78.6 | 44.5 | 37.1 | 22.9 | 9.16 | EC50 (log10 M) (HGGX39 [2]): -4.77; EC50 (log10 M) (iAstro [5]): -5.17; EC50 (log10 M) (HABS [6]): -4.84; EC50 (log10 M) (SUDIPGXVII [11]): -5.32; EC50 (log10 M) (HGGX2 [12]): -5.13; EC50 (log10 M) (HGGX6 [44]): -4.65; area under dose-response curve (SUDIPGVI): 33.8; maximal growth inhibition (DIPGX9 [28]): 53.6%; maximal growth inhibition (HGGX39 [29]): 40.4%; maximal growth inhibition (SUDIPGXXI [30]): 103%; maximal growth inhibition (iAstro [32]): 27.5%; maximal growth inhibition (HABS [33]): 80.2%; maximal growth inhibition (DIPGX29 [35]): 25.7%; maximal growth inhibition (HGGX42 [36]): 31.5%; maximal growth inhibition (SUDIPGXIX [37]): 62.6%; maximal growth inhibition (SUDIPGXVII [38]): 25.8%; maximal growth inhibition (HGGX2 [39]): 32.7%; maximal growth inhibition (HGGX6 [45]): 30.5%
CC(C)N(CCCNC(=O)Nc1ccc(C(C)(C)C)cc1)C[C@H]1O[C@@H](n2cc(Br)c3c(N)ncnc32)[C@H](O)[C@@H]1O [SGC0946] | -4.79 | -4.77 | -4.49 | -4.53 | -4.54 | 24.1 | 14.8 | 82.6 | 54 | 56.4 | 21.5 | 8.16 | 11.6 | 58.4 | 66.7 | 57.8 | 27.7 | 58.5 | 33.2 | 40.5 | EC50 (log10 M) (DIPGX7 [40]): -4.86; EC50 (log10 M) (DIPGX37 [4]): -4.52; EC50 (log10 M) (iAstro [5]): -4.87; EC50 (log10 M) (HGGX2 [12]): -4.58; EC50 (log10 M) (HGGX6 [44]): -4.77; area under dose-response curve (SUDIPGVI): 20; maximal growth inhibition (DIPGX9 [28]): 30.4%; maximal growth inhibition (SUDIPGXXI [30]): 107%; maximal growth inhibition (DIPGX7 [42]): 35.5%; maximal growth inhibition (DIPGX37 [31]): 65.1%; maximal growth inhibition (iAstro [32]): 25.3%; maximal growth inhibition (DIPGX29 [35]): 100%; maximal growth inhibition (HGGX42 [36]): 102%; maximal growth inhibition (SUDIPGXIX [37]): 107%; maximal growth inhibition (HGGX2 [39]): 100%; maximal growth inhibition (HGGX6 [45]): 43%
